Assay results as given in patent US6583309B1 (University of Medicine and Dentistry of New Jersey, priority 1999, dated 2003).
Like-named read-outs stand apart in the source and are kept apart here.

Columns and labels:
[1] = system: TAR-TAT complex formation in HL3T1 cells; test: In vivo assay: inhibition of TAR-TAT complex formation in HL3T1 cells (HIV-1 LTR promoter, CAT reporter); format: cell-based; conditions: compounds of formula V transfected into HL3T1 cells with pSV2Tat and pAL, CAT and luciferase read after 48 hour, read-out: Kd (nM), binding constants
Protocol: Binding of compounds of formula I and V to TAR RNA was measured by evaluating their inhibition of TAR-TAT complex formation in the presence of increasing levels of the compound to be tested. The compounds of formula I were tested in an in vitro assay; the compounds of formula V were tested in an in vivo assay.
Cells were grown in 2 mL of Dulbecco's modified Eagle medium (DMEM) supplemented with 10% fetal calf serum in 60 mm dishes at 37° C. in 5% CO2 in a tissue culture incubator. Cells were refreshed by 2 mL DMEM before transfection. Transfection was started by dropwise addition of 250 μL 2×HeBS (Hepes-buffered saline) and then keeping at room temperature for 10 minutes. Approximately 10 μg of plasmids (pSV2Tat and pAL) and increasing amounts of the Compounds DV, DW, DX or DY were transfected in the presence of CaCl2 (final concentration 125 mM) and the cells were incubated for 4 hour at 37° C. in a tissue culture incubator. The medium was then discarded and the cells were subjected to glycerol (1.5 mL of 15%) shock for 45 seconds. Finally the cells were washed twice with PBS (5 mL) and were grown in 3 mL DMEM. The cells were harvested after 48 hour post-transfection with changing with fresh DMEM at 24 hours and lysed in reporter lysis buffer (Promega). Aliquots were used for CAT and luciferase assays. Both activities were normalized to protein concentration determined by using a modified Bradford assay (Bio-Rad).

TAR RNA [2] = test: In vitro binding of resin-bound compounds to TAR RNA (OD260 of unbound RNA); set-up: species or system HIV; conditions: in vitro assay; compounds of formula I on TentaGel beads incubated with TAR RNA overnight at 4° C. in TK buffer; read-out: Kd (nM), binding constants
In short: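 Ten beads of TentaGel-bound compound in TK buffer were incubated overnight at 4 °C with T7-transcribed 29-residue TAR RNA ([…]). Unbound RNA in the supernatant was quantified by OD260. KD was calculated from equilibrium RNA concentrations assuming simple bimolecular binding.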

TAR RNA [3] = conditions: TAT binding to TAR RNA, Dingwall et al. (1990); cited from earlier work

| Compound | Kd (TAR RNA [2]) [nM] | also measured |
| --- | --- | --- |
| N=C(N)NCCC[C@@H](CNC(=O)N[C@@H](CCCNC(=N)N)CNC(=O)N[C@H](CN)CCCCN)NC(N)=O |  | Kd [1]: 500 nM |
| NCCCCCN(CC(=O)N[C@@H](CCCCN)COC(N)=O)C(=O)[C@@H](N)CCCCN [Compound DD, Carbamic acid 6-amino-2-{2-[(5-amino-pentyl)-(2,6-diamino-hexanoyl)-amino]-acetylamino}-hexyl ester] | 567 |  |
| NCCCCCN(CC(=O)N[C@@H](CCCCN)COC(N)=O)C(=O)[C@H](N)CCCCN [Compound DE, Carbamic acid 6-amino-2-{2-[(5-amino-pentyl)-(2,6-diamino-hexanoyl)-amino]-acetylamino}-hexyl ester] | 120 |  |
| NCCCCCNCC(=O)N(CCCCCN)CC(=O)N[C@@H](CCCCN)COC(N)=O [Compound DF, Carbamic acid 6-amino-2-(2-{(5-amino-pentyl)-[2-(5-amino-pentylamino)-acetyl]-amino}-acetylamino)-hexyl ester] | 31400 |  |
| NCCCCCCCNCC(=O)N(CCCCCN)CC(=O)N[C@@H](CCCCN)COC(N)=O [Compound DG, Carbamic acid 6-amino-2-{2-[[2-(7-amino-heptylamino)-acetyl]-(5-amino-pentyl)-amino]-acetylamino}-hexyl ester] | 235 |  |
| NCCCCCN(CC(=O)N[C@@H](CCCCN)COC(N)=O)C(=O)CNCCCCN [Compound DH, Carbamic acid 6-amino-2-{2-[[2-(4-amino-butylamino)-acetyl]-(5-amino-pentyl)-amino]-acetylamino}-hexyl ester] | 7690 |  |
| N=C(N)NCCC[C@H](N)COC(=O)N(CCCCCN)CC(=O)N[C@@H](CCCCN)COC(N)=O [Compound DI, Carbamic acid 6-amino-2-{2-[(2-amino-5-guanidino-pentyloxycarbonyl)-(5-amino-pentyl)-amino]-acetylamino}-hexyl ester] | 235 |  |
| NCCCCCN(CC(=O)N[C@@H](CCCCN)COC(N)=O)C(=O)OC[C@H](N)CCC(N)=O [Compound DJ, Carbamic acid 6-amino-2-{2-[(2-amino-4-carbamoyl-butoxycarbonyl)-(5-amino-pentyl)-amino]-acetylamino}-hexyl ester] | 603 |  |
| NCCCCCCCN(CC(=O)N[C@@H](CCCCN)COC(N)=O)C(=O)OC[C@@H](N)CCCCN [Compound DK, Carbamic acid 6-amino-2-{2-[(7-amino-heptyl)-(2,6-diamino-hexyloxycarbonyl)-amino]-acetylamino}-hexyl ester] | 1110 |  |
| NCCCCCCCN(CC(=O)N[C@@H](CCCCN)COC(N)=O)C(=O)OC[C@H](N)CCCCN [Compound DL, Carbamic acid 6-amino-2-{2-[(7-amino-heptyl)-(2,6-diamino-hexyloxycarbonyl)-amino]-acetylamino}-hexyl ester] | 678 |  |
| NCCCCCCCN(CC(=O)N[C@@H](CCCCN)COC(N)=O)C(=O)[C@@H](N)CCCCN [Compound DM, Carbamic acid 6-amino-2-{2-[(7-amino-heptyl)-(2,6-diamino-hexanoyl)-amino]-acetylamino}-hexyl ester] | 256 |  |
| NCCCCCCCN(CC(=O)N[C@@H](CCCCN)COC(N)=O)C(=O)[C@H](N)CCCCN [Compound DN, Carbamic acid 6-amino-2-{2-[(7-amino-heptyl)-(2,6-diamino-hexanoyl)-amino]-acetylamino}-hexyl ester] | 678 |  |
| NCCCCCCCN(CC(=O)N[C@@H](CCCCN)COC(N)=O)C(=O)CNCCCCCN [Compound DO, Carbamic acid 6-amino-2-(2-{(7-amino-heptyl)-[2-(5-amino-pentylamino)-acetyl]-amino}-acetylamino)-hexyl ester] | 1040 |  |
| NCCCCCCCNCC(=O)N(CCCCCCCN)CC(=O)N[C@@H](CCCCN)COC(N)=O [Compound DP, Carbamic acid 6-amino-2-(2-{(7-amino-heptyl)-[2-(7-amino-heptylamino)-acetyl]-amino}-acetylamino)-hexyl ester] | 774 |  |
| NCCCCCCCN(CC(=O)N[C@@H](CCCCN)COC(N)=O)C(=O)CNCCCCN [Compound DQ, Carbamic acid 6-amino-2-{2-[[2-(4-amino-butylamino)-acetyl]-(7-amino-heptyl)-amino]-acetylamino}-hexyl ester] | 6140 |  |
| N=C(N)NCCC[C@H](N)COC(=O)N(CCCCCCCN)CC(=O)N[C@@H](CCCCN)COC(N)=O [Compound DR] | 460 |  |
| NCCCCCCCN(CC(=O)N[C@@H](CCCCN)COC(N)=O)C(=O)OC[C@H](N)CCC(N)=O [Compound DS, Carbamic acid 6-amino-2-{2-[(2-amino-4-carbamoyl-butoxycarbonyl)-(7-amino-heptyl)-amino]-acetylamino}-hexyl ester] | 3150 |  |
| N=C(N)NCCC[C@H](N)COC(=O)N[C@@H](CCCCN)C(=O)N[C@H](CCCCN)COC(N)=O [Compound DT, Carbamic acid 6-amino-2-[6-amino-2-(2-amino-5-guanidino-pentyloxycarbonylamino)-hexanoylamino]-hexyl ester] | 215 |  |
| NCCCC[C@H](COC(N)=O)NC(=O)[C@H](CCCCN)NC(=O)OC[C@H](N)CCC(N)=O [Compound DU, Carbamic acid 6-amino-2-[6-amino-2-(2-amino-4-carbamoyl-butoxycarbonylamino)-hexanoylamino]-hexyl ester] | 639 |  |
| N=C(N)NCCC[C@@H](CNC(=O)N[C@@H](CCCCN)CNC(=O)N[C@H](CN)CCCNC(=N)N)NC(N)=O [Compound DV, 1-{5-Amino-1-[3-(1-aminomethyl-4-guanidino-butyl)-ureidomethyl]-pentyl}-3-(5-guanidino-2-ureido-pentyl)-urea] |  | Kd [1]: 500 nM |
| N=C(N)NCCC[C@@H](CNC(=O)N[C@@H](CCCCN)CNC(=O)N[C@H](CN)CCCCN)NC(N)=O [Compound DW, 1-{5-Amino-1-[3-(5-amino-1-aminomethyl-pentyl)-ureidomethyl]-pentyl}-3-(5-guanidino-2-ureido-pentyl)-urea] |  | Kd [1]: 50 nM |
| N=C(N)NCCC[C@@H](CNC(=O)N[C@@H](CCCCN)CNC(=O)NCCN)NC(N)=O [Compound DY] |  | Kd [1]: 150 nM |
| TAT: virally encoded HIV trans-acting regulatory protein that specifically recognizes TAR RNA |  | Kd (TAR RNA [3]): 12 nM |
